Results reported in PubChem BioAssay AID1845212 (Molecular Pharmacology Branch, DTP, NCI, 2023).

Tested on: NCI-H719 tumor spheroids, viability
Experiment: Anticancer human tumor NCI-H719 cell line growth inhibition;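 note: spheroids exposed to compounds for seven days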;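 for viability, T/C: percent viability relative to DMSO vehicle control as 100%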
Conditions: spheroids with HUVEC and MSC; for viability, T/C: stronger effect = lower value
Text: Multicellular complex tumor spheroid response to DNA repair inhibitors in combination with DNA-damaging drugs
This study explores the anticancer activities of DNA-damaging drugs and inhibitors of DNA damage repair, both as single agents and in combinations. Complex tumor spheroids comprised of malignant cells, endothelial cells and mesenchymal stem cells served as an in vitro model for human solid tumors. This model system incorporates physiologically relevant features and patient-derived or established malignant cell lines with clinically relevant genetic alterations from many tumor types. Twenty-six patient-derived or established malignant cell lines were evaluated representing sarcoma, melanoma, small cell lung cancer (SCLC), non-small cell lung cancer (NSCLC), as well as bladder, ovarian and pancreatic cancers. The concentration ranges selected for each drug and investigational agent were based upon clinically achievable concentrations if the clinical Cmax of the agent was known.
Compounds. The drugs and compounds olaparib (NSC753686), talazoparib (NSC767125), berzosertib (NSC777718), elimusertib (NSC800525), nedisertib (NSC802822), VX-984 (NSC792969), AZD-1390 (NSC803789), temozolomide (NSC362856), topotecan (NSC609699), trabectedin (NSC813783), staurosporine (NSC755774), and gemcitabine (NSC613327) were obtained from the National Cancer Institute (NCI) Developmental Therapeutics Program Chemical Repository. The FDA-approved anticancer drug set is available from the Developmental Therapeutics Program at https://dtp.cancer.gov/organization/dscb/obtaining/available_plates.htm. […] The stock solutions were prepared in dimethyl sulfoxide (DMSO, Sigma-Aldrich, St. Louis, MO, cat. D2650) at 400-fold the tested concentration and stored at -70 degrees C. Prior to their use, the stock solutions were diluted in fresh medium and the final DMSO concentration in the assay was 0.25% (v/v). All drugs and investigational agents were tested over a range starting from a high concentration at or near the clinical Cmax and decreasing in half-log increments. If the clinical Cmax for an agent had not been determined, the highest concentration tested was 10 microM.
Cell Lines. The patient-derived cancer cell (PDC) lines: 156681-154-R-J1-PDC, 283228-195-R-J1-PDC, 287954-098-R-J1-PDC, 292921-168-R-J2-PDC, 349418-098-R-PDC, 425362-245-T-J1-PDC, 556581-035-R-J1-PDC, and BL0293-F563-PDC were received from the NCI Patient-Derived Models Repository (PDMR, https://pdmr.cancer.gov). The established cell lines HS-SY-2 (RRID:CVCL_8719), MPNST, and SYO-1 (RRID:CVCL_7146) were obtained from the Sloan Kettering Institute. The alveolar soft parts sarcoma cell line ASPS-1 (RRID:CVCL_S738) was established at the NCI and grown from internal seed stocks. The following established cell lines were purchased from the American Type Culture Collection (ATCC, Manassas, VA): G-401 (ATCC, cat. CRL-1441, RRID:CVCL_0270), SW982 (ATCC, cat. HTB-93, RRID:CVCL_1734), VA-ES-BJ (ATCC, cat. CRL-2138, RRID:CVCL_1785), NCI-H719 (ATCC, cat. CRL-5837, RRID:CVCL_1582), NCI-H196 (ATCC, cat. CRL-5823, RRID:CVCL_1509), NCI-H841 (ATCC, cat. CRL-5845, RRID:CVCL_1595), NCI-H1618 (ATCC, cat. CRL-5879, RRID:CVCL_1480), NCI-H1876 (ATCC, cat. CRL-5902, RRID:CVCL_1503), DMS 114 (ATCC, cat. CRL-2066; RRID:CVCL_1174), NCI-H211 (ATCC, cat. CRL-5824; RRID:CVCL_1529), and SW 1271 (ATCC, cat. CRL-2177, RRID:CVCL_1716). The small cell lung cancer cell line COR-L88 was purchased from Sigma-Aldrich (cat. 92031917-1VL, RRID:CVCL_1141). The non-small cell lung cancer cell lines NCI-H226 (RRID:CVCL_1544) and NCI-H322M (RRID:CVCL_1557) were established at the NCI and grown from internal seed stocks. Pooled donor human umbilical vein endothelial cells (HUVEC, Lonza, cat. CC-2519) and human mesenchymal stem cells (hMSC, Lonza, cat. PT-2501) were purchased from Lonza (Walkersville, MD).
Cell Culture. All cells were maintained in an incubator at 37 degrees C and 5% CO2 with 95% humidity. […]

For `CNCc1ccc(-c2cc(-c3nc(-c4ccc(S(=O)(=O)C(C)C)cc4)cnc3N)on2)cc1` + COc1cc2c(cc1O)CCNC21CSC2c3c(OC(C)=O)c(C)c4c(c3C(COC1=O)N1C(O)C3Cc5cc(C)c(OC)c(O)c5C(C21)N3C)OCO4, the IC50 (curve of first compound, second compound 30 pM) was 84.2 nM, the IC50 (curve of first compound, second compound 94.9 pM) was < 9.49 nM and the IC50 (curve of first compound, second compound 0.0003 µM) was < 9.49 nM. The IC50 (curve of first compound, second compound 0.000949 µM) was < 9.49 nM, the IC50 (curve of first compound, second compound 0.003 µM) was < 9.49 nM and the viability, T/C (second compound 30 pM, first compound 0.00949 µM) was 79.9%. The viability, T/C (second compound 30 pM, first compound 0.03 µM) was 86.5%, the viability, T/C (second compound 30 pM, first compound 0.0949 µM) was 45% and the viability, T/C (second compound 30 pM, first compound 0.3 µM) was 15.5%. It also gave a viability, T/C (second compound 30 pM, first compound 0.949 µM) of 10.5%, a viability, T/C (second compound 30 pM, first compound 3 µM) of 1.88% and a viability, T/C (second compound 94.9 pM, first compound 0.00949 µM) of 34.3%. The viability, T/C (second compound 94.9 pM, first compound 0.03 µM) was 29.2%, the viability, T/C (second compound 94.9 pM, first compound 0.0949 µM) was 14.2% and the viability, T/C (second compound 94.9 pM, first compound 0.3 µM) was 8.3%. The viability, T/C (second compound 94.9 pM, first compound 0.949 µM) was 9.95%, the viability, T/C (second compound 94.9 pM, first compound 3 µM) was 0.36% and the viability, T/C (second compound 0.0003 µM, first compound 0.00949 µM) was 8.48%. The viability, T/C (second compound 0.0003 µM, first compound 0.03 µM) was 25.4%, the viability, T/C (second compound 0.0003 µM, first compound 0.0949 µM) was 8.28% and the viability, T/C (second compound 0.0003 µM, first compound 0.3 µM) was 10.4%. It also gave a viability, T/C (second compound 0.0003 µM, first compound 0.949 µM) of 9.76%, a viability, T/C (second compound 0.0003 µM, first compound 3 µM) of 0.75% and a viability, T/C (second compound 0.000949 µM, first compound 0.00949 µM) of 8.38%. It also gave a viability, T/C (second compound 0.000949 µM, first compound 0.03 µM) of 9.01%, a viability, T/C (second compound 0.000949 µM, first compound 0.0949 µM) of 8.98% and a viability, T/C (second compound 0.000949 µM, first compound 0.3 µM) of 9.91%. For the same molecule, the viability, T/C (second compound 0.000949 µM, first compound 0.949 µM) was 10.3%, the viability, T/C (second compound 0.000949 µM, first compound 3 µM) was 0.62% and the viability, T/C (second compound 0.003 µM, first compound 0.00949 µM) was 0.5%. The viability, T/C (second compound 0.003 µM, first compound 0.03 µM) was 1.4%, the viability, T/C (second compound 0.003 µM, first compound 0.0949 µM) was 0.58% and the viability, T/C (second compound 0.003 µM, first compound 0.3 µM) was 0.82%. For the same molecule, the viability, T/C (second compound 0.003 µM, first compound 0.949 µM) was 0.56% and the viability, T/C (second compound 0.003 µM, first compound 3 µM) was 1.15%.
In the case of `COc1cc2c(cc1O)CCNC21CSC2c3c(OC(C)=O)c(C)c4c(c3C(COC1=O)N1C(O)C3Cc5cc(C)c(OC)c(O)c5C(C21)N3C)OCO4` (stereo not given), the viability, T/C (compound 94.9 pM) is reported as 36.8% [middle of 10 runs], the viability, T/C (compound 0.0003 µM) is reported as 8.36% [middle of 10 runs] and the viability, T/C (compound 0.000949 µM) is reported as 7.96% [middle of 10 runs]. For the same molecule, the viability, T/C (compound 0.003 µM) was 0.83% [middle of 9 runs] and the IC50 (compound alone, run of 12/16/2019) was 0.0663 nM [middle of 10 runs].
